Numbering of substitutions follows the chain as printed.
Assays:
Experiment in all cases: Two-electrode voltage clamp, ACh-dependent (m2R-dependent) K+ current activation
Type in all cases: cell-based
Kir3.2 M313S = biological target: T1, Kir3.2 M313S (Mus musculus, UniProt P48542, I313S); conditions: Kir3.2 M313S with porcine m2R in Xenopus oocytes; −120 mV; Hill equation fit
T1 sequence (P48542 19-425 I313S): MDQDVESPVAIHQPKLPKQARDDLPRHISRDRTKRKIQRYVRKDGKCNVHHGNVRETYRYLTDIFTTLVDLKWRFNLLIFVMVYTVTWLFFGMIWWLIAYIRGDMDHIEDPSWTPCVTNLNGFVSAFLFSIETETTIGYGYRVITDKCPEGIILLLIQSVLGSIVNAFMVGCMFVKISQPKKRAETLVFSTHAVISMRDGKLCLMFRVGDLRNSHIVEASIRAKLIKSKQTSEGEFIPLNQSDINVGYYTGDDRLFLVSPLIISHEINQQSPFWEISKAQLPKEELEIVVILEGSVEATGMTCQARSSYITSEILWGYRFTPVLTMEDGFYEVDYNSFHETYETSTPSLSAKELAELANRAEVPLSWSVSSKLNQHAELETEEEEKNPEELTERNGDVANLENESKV
T1 sequence (P06199 1-466 partner): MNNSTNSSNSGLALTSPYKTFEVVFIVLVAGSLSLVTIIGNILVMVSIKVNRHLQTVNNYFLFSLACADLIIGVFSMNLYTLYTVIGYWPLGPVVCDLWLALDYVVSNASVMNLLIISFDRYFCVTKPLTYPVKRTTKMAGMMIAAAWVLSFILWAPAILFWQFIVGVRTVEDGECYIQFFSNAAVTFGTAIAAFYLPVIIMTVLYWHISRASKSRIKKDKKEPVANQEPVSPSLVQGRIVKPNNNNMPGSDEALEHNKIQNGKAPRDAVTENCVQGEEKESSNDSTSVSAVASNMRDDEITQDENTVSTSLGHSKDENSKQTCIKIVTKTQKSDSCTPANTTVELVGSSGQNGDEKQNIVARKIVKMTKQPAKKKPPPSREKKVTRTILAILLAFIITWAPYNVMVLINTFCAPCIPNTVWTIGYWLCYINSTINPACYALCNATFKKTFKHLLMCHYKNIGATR
Text: (§1) The mouse Kir3.2d isoform was subjected to functional analyses. The amino acid numbers correspond to the longest mouse Kir3.2 isoform. Point mutations were introduced using the QuikChange site-directed mutagenesis kit (Stratagene, La Jolla, CA), and the presence of the mutations was confirmed by direct DNA sequencing. The care of Xenopus laevis was in accordance with the guideline of the Institute of Experimental Animal Sciences, Osaka University. The protocol was approved by the Animal Experiment Committee of Osaka University. The frogs were deeply anesthetized by immersing in 0.2% tricaine methanesulfonate for 20 min at 18°C. A portion of an ovary lobe was surgically removed and incubated with collagenase to remove follicular cells. The oocytes were injected with the cRNAs of Kir3.2 and porcine m2-muscarinic receptor (m2R), and maintained in modified Barth’s solution at 18°C with daily solution changes. Electrophysiological studies were undertaken 48–72 h later at room temperature (20–25°C). Two-electrode voltage-clamp recordings from oocytes were performed using a GeneClamp 500B amplifier (Axon Instruments, Sunnyvale, CA). […] The bath solution contained 40 mM KCl, 50 mM NaCl, 3 mM MgCl2, 0.15 mM niflumic acid, and 5 mM HEPES-KOH (pH 7.4). The currents were recorded in the absence or presence of various concentrations of acetylcholine (ACh). Ba^2+ (3 mM) was added at the end of the recording to estimate the endogenous leak current. The data are expressed as mean values ± standard error of the mean. For the quantitative estimation of ACh-dependent current responses of the wild-type (WT) and mutant channels, the current amplitudes at the end of test pulses at each ACh concentration ([ACh]) were fitted using the following equation:
(§2) I=min+[(max−min)/(1+(EC50/[ACh])^nH)]
(§3) where I is the current amplitude measured at the [ACh], n H is the Hill coefficient, and EC50 is the concentration that induces 50% of the maximal response. […] The values of n H and EC50 were calculated using a non-linear least-squares best fit (SigmaPlot 9; Systat Software). Statistical analyses were performed by one-way ANOVA with post-hoc tests.

Kir3.2 M313G = biological target: T2, Kir3.2 M313G (Mus musculus, UniProt P48542, I313G); conditions: Kir3.2 M313G with porcine m2R in Xenopus oocytes; −120 mV; Hill equation fit
T2 sequence (P48542 19-425 I313G): T1 sequence (P48542 19-425 I313S) with S295G
T2 sequence (P06199 1-466 partner): T1 sequence (P06199 1-466 partner)
Text: as §1, §2, §3

Kir3.2 E236D = biological target: T3, Kir3.2 E236D (Mus musculus, UniProt P48542, E236D); conditions: Kir3.2 E236D with porcine m2R in Xenopus oocytes; −120 mV; Hill equation fit
T3 sequence (P48542 19-425 E236D): T1 sequence (P48542 19-425 I313S) with E218D, S295I
T3 sequence (P06199 1-466 partner): T1 sequence (P06199 1-466 partner)
Text: as §1, §2, §3

## CC(=O)OCC[N+](C)(C)C [ACh, acetylcholine]
Kir3.2 M313S
  Hill coefficient: 1.04 ± 0.05
Kir3.2 M313G
  Hill coefficient: 0.98 ± 0.07
Kir3.2 E236D
  Hill coefficient: 0.74 ± 0.07

From article PMC3823594, “Conformational Changes Underlying Pore Dilation in the Cytoplasmic Domain of Mammalian Inward Rectifier K^+ Channels” (PLoS ONE, 2013)
